Assay results published in US20250154138A1, “Small Molecule IL-17A Modulators” (BeiGene, Ltd., priority 2022, published 2025).

Tests used:
[1] = biological target: human IL-17A / human IL-17RA (Homo sapiens (Human), UniProt Q16552); experiment: Human IL-17A biochemical assay (HTRF, blocking of IL-17A binding to IL-17RA); conditions: 0.4 nM IL-17A, 0.3 nM IL-17RA, max compound concentration 10 uM
Summary of the method: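 Steps: compound dilutions (max 10 uM, 10 points) pre-incubate with 0.4 nM IL-17A for 3 h at RT; 0.3 nM IL-17RA added for 1 h; HTRF antibody pair added for 1 h; fluorescence ratio read and percent inhibition fitted to a four-parameter logistic for IC50.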

[2] = system: IL-17-induced GROα secretion from HT-29 cells; experiment: GROα release assay in human colorectal adenocarcinoma epithelial cell (HT-29, ELISA); assay type: cell-based; conditions: Homo sapiens, HT-29, 48 h, 10 ng/mL IL-17A, highest concentration 10 μM, read-out: Cellular assay HT29 cell/CXCL1 IC50
Summary of the method: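 IC50 values come from four-parameter fits of GROα levels, quantified by ELISA (450 nm, standard curve) in supernatants. Compounds, 4-fold serially diluted from 10 μM, were mixed 15 min with IL-17A (10 ng/mL final) before 48 h incubation with HT-29 cells at 37°C.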

human IL-17A / human IL-17RA, sequence (Q16552 24-155): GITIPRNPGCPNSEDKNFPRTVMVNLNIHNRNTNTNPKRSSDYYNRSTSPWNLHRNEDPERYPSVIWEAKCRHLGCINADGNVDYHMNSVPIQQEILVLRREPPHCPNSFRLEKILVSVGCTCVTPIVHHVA

Row | Structure (SMILES) | IC50 [1] [nM] | IC50 [2] [nM]
1 | CCC1CCC(C(NC(=O)c2ccnn2C)C(=O)Nc2ccc3c(c2)CC(C(=O)NC)(N2CC4(CC4)CNC2=O)C3)CC1 (stereo not drawn) [Example 139, N-(1-(4-ethylcyclohexyl)-2-((2-(methylcarbamoyl)-2-(6-oxo-5,7-diazaspiro[2.5]octan-5-yl)-2,3-dihydro-1H-inden-5-yl)amino)-2-oxoethyl)-1-methyl-1H-pyrazole-5-carboxamide] | 10 | 21.9
2 | CNC(=O)C1(N2CC3(CC3)CNC2=O)Cc2ccc(NC(=O)[C@@H](NC(=O)c3ccnn3C3CC3)C3CCCCC3)cc2C1 (stereo partly drawn) [Example 141, N-((1S)-1-cyclohexyl-2-((2-(methylcarbamoyl)-2-(6-oxo-5,7-diazaspiro[2.5]octan-5-yl)-2,3-dihydro-1H-inden-5-yl)amino)-2-oxoethyl)-1-cyclopropyl-1H-pyrazole-5-carboxamide] | 16 | 41.1
3 | CNC(=O)C1(N2CC3(CC3)CNC2=O)Cc2ccc(NC(=O)[C@@H](NC(=O)c3ccnn3C)C3CCC(F)(F)CC3)cc2C1 (stereo partly drawn) [Example 142, N-((1S)-1-(4,4-difluorocyclohexyl)-2-((2-(methylcarbamoyl)-2-(6-oxo-5,7-diazaspiro[2.5]octan-5-yl)-2,3-dihydro-1H-inden-5-yl)amino)-2-oxoethyl)-1-methyl-1H-pyrazole-5-carboxamide] | 107 | 197
4 | CNC(=O)C1(N2CC3(CC3)CNC2=O)Cc2ccc(NC(=O)C(NC(=O)c3ccnn3C)C3CCC(C(C)(F)F)CC3)cc2C1 (stereo not drawn) [Example 143, N-(1-(4-(1,1-difluoroethyl)cyclohexyl)-2-((2-(methylcarbamoyl)-2-(6-oxo-5,7-diazaspiro[2.5]octan-5-yl)-2,3-dihydro-1H-inden-5-yl)amino)-2-oxoethyl)-1-methyl-1H-pyrazole-5-carboxamide] | 163 | 772
5 | CNC(=O)C1(N2C(=O)NC3CCC2C3)Cc2ccc(NC(=O)[C@@H](NC(=O)c3ccnn3C)C3CCCCC3)cc2C1 (stereo partly drawn) [Example 144, N-((1S)-1-cyclohexyl-2-((2-(methylcarbamoyl)-2-(3-oxo-2,4-diazabicyclo[3.2.1]octan-2-yl)-2,3-dihydro-1H-inden-5-yl)amino)-2-oxoethyl)-1-methyl-1H-pyrazole-5-carboxamide] | 48.6 | 182
6 | CNC(=O)C1(N2CC3(CC3)CNC2=O)CCc2cc(NC(=O)[C@@H](NC(=O)c3ccnn3C)C3CCCCC3)sc2C1 (stereo partly drawn) [Example 145, N-((1S)-1-cyclohexyl-2-((6-(methylcarbamoyl)-6-(6-oxo-5,7-diazaspiro[2.5]octan-5-yl)-4,5,6,7-tetrahydrobenzo[b]thiophen-2-yl)amino)-2-oxoethyl)-1-methyl-1H-pyrazole-5-carboxamide] | 139 | 454
7 | Cn1nccc1C(=O)N[C@H](C(=O)Nc1ccc2c(c1)CC(N1C[C@@H](C(F)(F)F)NC1=O)C2)C1CCCCC1 (stereo partly drawn) [Example 146, N-((1S)-1-cyclohexyl-2-oxo-2-((2-((S)-2-oxo-4-(trifluoromethyl)imidazolidin-1-yl)-2,3-dihydro-1H-inden-5-yl)amino)ethyl)-1-methyl-1H-pyrazole-5-carboxamide] | 204 | 768
8 | CNC(=O)C1(N2CC3(CCCC3)CNC2=O)Cc2ccc(NC(=O)[C@@H](NC(=O)c3ccnn3C)C3CCCCC3)cc2C1 (stereo partly drawn) [Example 147, N-((1S)-1-cyclohexyl-2-((2-(methylcarbamoyl)-2-(8-oxo-7,9-diazaspiro[4.5]decan-7-yl)-2,3-dihydro-1H-inden-5-yl)amino)-2-oxoethyl)-1-methyl-1H-pyrazole-5-carboxamide] | 22.4 | 61.8
9 | COC(=O)C1(N2CC3(CC3)CNC2=O)Cc2ccc(NC(=O)C(NC(=O)c3ccnn3C)C3CCC(C(C)C)CC3)cc2C1 (stereo not drawn) [Example 148, methyl 5-(2-(4-isopropylcyclohexyl)-2-(1-methyl-1H-pyrazole-5-carboxamido)acetamido)-2-(6-oxo-5,7-diazaspiro[2.5]octan-5-yl)-2,3-dihydro-1H-indene-2-carboxylate] | 62 | 164
10 | CNC(=O)C1(N2C[C@@H](C(C)C)NC2=O)Cc2ccc(NC(=O)[C@@H](NC(=O)c3cccc(Oc4c(C)n[nH]c4C)c3)C3CCCCC3)cc2C1 (stereo partly drawn) [Example 149, 5-((S)-2-cyclohexyl-2-(3-((3,5-dimethyl-1H-pyrazol-4-yl)oxy)benzamido)acetamido)-2-((R)-4-isopropyl-2-oxoimidazolidin-1-yl)-N-methyl-2,3-dihydro-1H-indene-2-carboxamide] | 92 | 44.3
11 | COc1ccc(CNC(=O)C2(N3C[C@@H](C(C)C)NC3=O)Cc3ccc(NC(=O)[C@@H](NC(=O)c4ccnn4C)C4CCCCC4)cc3C2)cc1 (stereo partly drawn) [Example 150, N-((1S)-1-cyclohexyl-2-((2-((R)-4-isopropyl-2-oxoimidazolidin-1-yl)-2-((4-methoxybenzyl)carbamoyl)-2,3-dihydro-1H-inden-5-yl)amino)-2-oxoethyl)-1-methyl-1H-pyrazole-5-carboxamide] | 20 | 46.5
12 | CC(C)[C@@H]1CN(C2(C(=O)Nc3ccccc3)Cc3ccc(NC(=O)[C@@H](NC(=O)c4ccnn4C)C4CCCCC4)cc3C2)C(=O)N1 (stereo partly drawn) [Example 151, N-((1S)-1-cyclohexyl-2-((2-((R)-4-isopropyl-2-oxoimidazolidin-1-yl)-2-(phenylcarbamoyl)-2,3-dihydro-1H-inden-5-yl)amino)-2-oxoethyl)-1-methyl-1H-pyrazole-5-carboxamide] | 31 | 99.6
13 | CNC(=O)C1(N2CC3(CC3)CNC2=O)Cc2ccc(NC(=O)C(NC(=O)c3ccnn3C)C3CCC(C(C)C)CC3)cc2C1 (stereo not drawn) [Example 152, N-(1-(4-isopropylcyclohexyl)-2-((2-(methylcarbamoyl)-2-(6-oxo-5,7-diazaspiro[2.5]octan-5-yl)-2,3-dihydro-1H-inden-5-yl)amino)-2-oxoethyl)-1-methyl-1H-pyrazole-5-carboxamide] | 10 | 31
14 | CNC(=O)C1(N2CC3(CC3)CNC2=O)Cc2ccc(NC(=O)[C@@H](NC(=O)c3cccc(C#N)c3)C3CCCCC3)cc2C1 (stereo partly drawn) [Example 153, 5-((S)-2-(3-cyanobenzamido)-2-cyclohexylacetamido)-N-methyl-2-(6-oxo-5,7-diazaspiro[2.5]octan-5-yl)-2,3-dihydro-1H-indene-2-carboxamide] | 95 | 258
15 | CCn1nccc1C(=O)N[C@H](C(=O)Nc1ccc2c(c1)CC(C(=O)NC)(N1CC3(CC3)CNC1=O)C2)C1CCCCC1 (stereo partly drawn) [Example 154, N-((1S)-1-cyclohexyl-2-((2-(methylcarbamoyl)-2-(6-oxo-5,7-diazaspiro[2.5]octan-5-yl)-2,3-dihydro-1H-inden-5-yl)amino)-2-oxoethyl)-1-ethyl-1H-pyrazole-5-carboxamide] | 28 | 71.4
16 | CC(C)[C@@H]1CN(C2(C(=O)NC34CC5CC(CC(C5)C3)C4)Cc3ccc(NC(=O)[C@@H](NC(=O)c4ccnn4C)C4CCCCC4)cc3C2)C(=O)N1 (stereo partly drawn) [Example 155, N-((1S)-2-((2-(((3R,5R)-adamantan-1-yl)carbamoyl)-2-((R)-4-isopropyl-2-oxoimidazolidin-1-yl)-2,3-dihydro-1H-inden-5-yl)amino)-1-cyclohexyl-2-oxoethyl)-1-methyl-1H-pyrazole-5-carboxamide] | 129 | 211
17 | COCC1(N2CC3(CC3)CNC2=O)Cc2ccc(NC(=O)[C@@H](NC(=O)c3ccnn3C)C3CCCCC3)cc2C1 (stereo partly drawn) [Example 156, N-((1S)-1-cyclohexyl-2-((2-(methoxymethyl)-2-(6-oxo-5,7-diazaspiro[2.5]octan-5-yl)-2,3-dihydro-1H-inden-5-yl)amino)-2-oxoethyl)-1-methyl-1H-pyrazole-5-carboxamide] | 68.3 | 305
18 | CNC(=O)C1(N2CC3(CC3)CNC2=O)Cc2ccc(NC(=O)[C@@H](NC(=O)c3ccc(C#N)n3C3CC3)C3CCCCC3)cc2C1 (stereo partly drawn) [Example 157, 5-cyano-N-((1S)-1-cyclohexyl-2-((2-(methylcarbamoyl)-2-(6-oxo-5,7-diazaspiro[2.5]octan-5-yl)-2,3-dihydro-1H-inden-5-yl)amino)-2-oxoethyl)-1-cyclopropyl-1H-pyrrole-2-carboxamide] | 37 | 398
19 | CNC(=O)C1(N2CC3(CC3)CNC2=O)Cc2ccc(NC(=O)[C@@H](NC(=O)C(F)(F)c3cccc(C#N)c3)C3CCCCC3)cc2C1 (stereo partly drawn) [Example 158, 5-((S)-2-(2-(3-cyanophenyl)-2,2-difluoroacetamido)-2-cyclohexylacetamido)-N-methyl-2-(6-oxo-5,7-diazaspiro[2.5]octan-5-yl)-2,3-dihydro-1H-indene-2-carboxamide] | 123 | 48.5
20 | COCC1(N2CC3(CC3)CNC2=O)Cc2ccc(NC(=O)[C@@H](NC(=O)c3ccnn3C)C(C3CC3)C3CC3)cc2C1 (stereo partly drawn) [Example 159, N-((2S)-1,1-dicyclopropyl-3-((2-(methoxymethyl)-2-(6-oxo-5,7-diazaspiro[2.5]octan-5-yl)-2,3-dihydro-1H-inden-5-yl)amino)-3-oxopropan-2-yl)-1-methyl-1H-pyrazole-5-carboxamide] | 53.2 | 187
21 | COCC1(N2CC3(CC3)CNC2=O)Cc2ccc(NC(=O)[C@@H](NC(=O)c3ccnn3C(C)C)C(C3CC3)C3CC3)cc2C1 (stereo partly drawn) [Example 160, N-((2S)-1,1-dicyclopropyl-3-((2-(methoxymethyl)-2-(6-oxo-5,7-diazaspiro[2.5]octan-5-yl)-2,3-dihydro-1H-inden-5-yl)amino)-3-oxopropan-2-yl)-1-isopropyl-1H-pyrazole-5-carboxamide] | 110 | 93.1
